From patent publication US20100113421A1, “NON-NUCLEOSIDE REVERSE TRANSCRIPTASE INHIBITORS” (priority 2006, published 2010) come the findings set out here.

Molecules are shown by their SMILES.

For one assay, the system named is HIV strain containing the Y181C mutation. The assay is described as follows: Spread assay, Y181C mutant strain. The settings on record: Human immunodeficiency virus 1; spread assay, 10% FBS, Y181C mutant strain; read-out: CIC95. Format: cell-based. As for the experimental part: Assays for the inhibition of acute HIV-1 infection of T-lymphoid cells (alternatively referred to herein as the “spread assay”) were conducted in accordance with Vacca, J. P. et al., Proc. Natl. Acad. Sci. USA 1994, 91: 4096. The assays (using 10% FBS) tested for inhibition of wild type HIV-1 and of HIV strains containing the Y181C or K103N mutation. […] (Note that the compound of Example 6 was tested only up to a 833 nM concentration and the CIC95 value was determined to be >833 nM. The compound of Example 78 was not tested in the Y1818C assay.) The compounds of Examples 1 to 119 (including Examples 70A and 70B) had CIC95 values of less than 1000 nanomolar in the assay employing the K103N mutant strain. In an analogous assay employing a mutant strain containing both the K103N and Y181C mutations, the compounds of Examples 70A, 70B and 78-115 had CIC95 values of less than 1000 nanomolar.
Consider `Cc1c(C(=O)N(C)Cc2ccc(Cl)cc2Cl)[nH]c(C(N)=O)c1S(=O)(=O)N1CCCC1` [Example 116, N-(2,4-dichlorobenzyl)-N,3-dimethyl-4-(1-pyrrolidinylsulfonyl)-1H-pyrrole-2,5-dicarboxamide], for which the IC95 is below 8 µM.

As for `Cc1c(C(=O)N(C)Cc2ccc(Cl)c(Cl)c2)[nH]c(C(N)=O)c1S(=O)(=O)c1ccccc1` [Example 14, N-(3,4-dichlorobenzyl)-N,3-dimethyl-4-(phenylsulfonyl)-1H-pyrrole-2,5-dicarboxamide], the IC95 was below 8 µM.

As for `Cc1cc(C)cc(S(=O)(=O)c2c(C(N)=O)[nH]c(C(=O)N(C)Cc3ccccc3F)c2C)c1` [Example 24, N-(2-fluorobenzyl)-N,3-dimethyl-4-(3,5-dimethylphenylsulfonyl)-1H-pyrrole-2,5-dicarboxamide], the IC95 was below 8 µM.

In the case of `CCCc1c(C(=O)N(C)Cc2ccc3ncccc3c2)[nH]c(C(N)=O)c1S(=O)(=O)c1ccccc1` [Example 65, N-methyl-4-(phenylsulfonyl)-3-propyl-N-(6-quinolinylmethyl)-1H-pyrrole-2,5-dicarboxamide], the IC95 was below 8 µM.

Take `Cc1c(C(=O)N(C)Cc2ccc(F)cc2Cl)[nH]c(C(N)=O)c1S(=O)(=O)c1ccccc1` [Example 4, N-(2-Chloro-4-fluorobenzyl)-N,3-dimethyl-4-(phenylsulfonyl)-1H-pyrrole-2,5-dicarboxamide]: the IC95 was below 8 µM.

`Cc1c(C(=O)N(C)Cc2ccccc2F)[nH]c(C(N)=O)c1S(=O)(=O)c1cc(Cl)cc(Cl)c1` [Example 33, N-(2-fluorobenzyl)-N,3-dimethyl-4-(3,5-dichlorophenylsulfonyl)-1H-pyrrole-2,5-dicarboxamide]: the IC95 is below 8 µM.

Regarding `Cc1c(C(=O)N(C)Cc2ccc(Cl)cc2Cl)[nH]c(C(N)=O)c1S(=O)(=O)c1cc(Cl)cc(Cl)c1` [Example 2, N-(2,4-Dichlorobenzyl)-4-[(3,5-dichlorophenyl)sulfonyl]-N,3-dimethyl-1H-pyrrole-2,5-dicarboxamide], the IC95 is below 8 µM.

Take `Cc1c(C(=O)N(C)Cc2ccccc2Cl)[nH]c(C(N)=O)c1S(=O)(=O)c1cccc(Cl)c1` [Example 20, N-(2-chlorobenzyl)-N,3-dimethyl-4-(3-chlorophenylsulfonyl)-1H-pyrrole-2,5-dicarboxamide]: the IC95 was below 8 µM.

As for `Cc1c(C(=O)N(C)Cc2ccc(S(C)(=O)=O)cc2Cl)[nH]c(C(N)=O)c1S(=O)(=O)c1ccccc1` [Example 15, N-(2-chloro-4-methylsulfonylbenzyl)-N,3-dimethyl-4-(phenylsulfonyl)-1H-pyrrole-2,5-dicarboxamide], the IC95 was below 8 µM.

For `Cc1c(C(=O)N(C)Cc2ccc(Cl)cc2F)[nH]c(C(N)=O)c1S(=O)(=O)c1cc(F)cc(Cl)c1` [Example 31, N-(4-chloro-2-fluorobenzyl)-N,3-dimethyl-4-(3-chloro-5-fluorophenylsulfonyl)-1H-pyrrole-2,5-dicarboxamide], the IC95 is below 8 µM.

For the compound `Cc1cc(C)cc(S(=O)(=O)c2c(C(N)=O)[nH]c(C(=O)N(C)Cc3ccc(Cl)cc3F)c2C)c1` [Example 26, N-(4-chloro-2-fluorobenzyl)-N,3-dimethyl-4-(3,5-dimethylphenylsulfonyl)-1H-pyrrole-2,5-dicarboxamide], the IC95 was below 8 µM.

For the compound `Cc1cc(C)cc(S(=O)(=O)c2c(C(N)=O)[nH]c(C(=O)N(C)Cc3cc4cccnc4cc3Cl)c2C)c1` [Example 48, N-[(7-chloro-6-quinolinyl)methyl]-4-[(3,5-dimethylphenyl)sulfonyl]-N,3-dimethyl-1H-pyrrole-2,5-dicarboxamide], the IC95 was below 8 µM.

The assay is the same for the next values; noted with them: spread assay, Y181C mutant strain; tested only up to a 833 nM concentration; read-out: CIC95.
As to `Cc1c(C(=O)N(C)Cc2ccccc2Cl)[nH]c(C(N)=O)c1S(=O)(=O)c1ccc2ccccc2c1` [Example 6, N-(2-Chlorobenzyl)-N,3-dimethyl-4-(2-naphthylsulfonyl)-1H-pyrrole-2,5-dicarboxamide], the IC95 is above 0.833 µM.
